# Test system: THP-1 CD14
# Assay: THP-1 CD14 Screening Assay
# Assay type: cell-based
# Details: Homo sapiens, THP-1, 72 h, THP-1 cells treated with PMA and compound (5-point 10-fold dilution), human CD14 ELISA on media
# Experimental: THP-1 CD14 Screening Assay Protocol:
# 5×10^4 THP-1 cells were plated per well in a tissue culture-treated 96-well plate. At the time of plating, cells were treated with a final concentration of […] PMA and 0.04% DMSO vehicle, concominant with compounds in a 5-point 10-fold dilution per compound. Cells were treated with PMA and DMSO as a control for differentiation without compound treatment, and with only DMSO as a control for no differentiation and no compound treatment. 500 nM IACS-71432 was added as a control compound across all assay plates.
# After incubation at 37° C./5% CO2 for 72 hr, media was collected from the cells and the screening assay was performed using the commercially-available human CD14 SimpleStep ELISA kit from Abcam, according to the following protocol: • 1) ELISA kits were taken out to equilibrate to rt. • 2) Following the protocol listed in the kit, standards were prepared as 1:1 dilutions from 2 ng/ml. • 3) Following the protocol listed in the kit, antibody cocktail was prepared (the volume is contingent on the number of wells required). • 4) 50 μl of standards were added to the appropriate wells, thoroughly mizing the standards before adding to each well. • 5) 25 μl of Sample Diluent (from kit) was added to all sample wells. • 6) Cell plates were centrifuged for 5 min at 300 rcf, with slow acceleration and slow deceleration. • 7) 25 μl of media from cell plates was transferred to assay plates containing standards. • 8) 50 μl of antibody cocktail was added to all of the wells, standards and samples. • 9) Assay plates were sealed tightly and incubated on the plate shaker at 400 rpm for 1 hr at rt. • 10) Wash buffer was prepared following the protocol listed in the kit. • 11) After the hour incubation, assay plates were washed 5 times using 200 μl wash buffer per well per wash. • 12) 100 μl of TMB substrate was added to each well in the dark and incubated on the shaker for 3-4.min, at which point color development was monitored to ensure a robust signal for detection but to avoid oversaturation of signal, for no longer than 10 min. • 13) The absorbance at 607 nm was read on a Perkin Elmer Envision plate reader. • 14) Data was processed using Microsoft Excel and GraphPad Prism.
row,Structure (SMILES),IC50 [nM]
1,"O=S(=O)(NCc1ccncc1)c1ccc(N2CCC(F)(F)CC2)cc1 [Example 23, 4-(4,4-difluoropiperidin-1-yl)-N-(pyridin-4-ylmethyl)-benzenesulfonamide]",5 to 100
2,"O=c1[nH]c2ccc(-c3ccc(S(=O)(=O)NCc4ccncc4)cc3)cc2o1 [Example 62, 4-(2-oxo-2,3-dihydro-benzo[d]oxazol-6-yl)-N-(pyridin-4-ylmethyl)-benzenesulfonamide]",100 to 500
3,"CC1(C)CCN(c2ccc(S(=O)(=O)NCc3ccncc3)cc2)CC1 [Example 36, 4-(4,4-dimethylpiperidin-1-yl)-N-(pyridin-4-ylmethyl)-benzenesulfonamide]",< 5
4,"O=S(=O)(NCc1ccncc1)c1ccc(C2CCCOC2)cc1 (stereo not shown) [Example 17, N-(pyridin-4-ylmethyl)-4-(tetrahydro-2H-pyran-3-yl)-benzenesulfonamide]",< 5
5,"O=S(=O)(NCc1ccncc1)c1ccc(-c2ccc3ccoc3c2)cc1 [Example 51, 4-(benzofuran-6-yl)-N-(pyridin-4-ylmethyl)-benzenesulfonamide]",< 5
6,"O=S1(=O)CCC(c2ccc(S(=O)(=O)NCc3ccncc3)cc2)CC1 [Example 18, 4-(1,1-dioxotetrahydro-2H-thiopyran-4-yl)-N-(pyridin-4-ylmethyl)-benzenesulfonamide]",> 500
7,"O=S(=O)(NCc1ccncc1)c1ccc(-c2ccc3ncnc(O)c3c2)cc1 [Example 54, 4-(4-hydroxyquinazolin-6-yl)-N-(pyridin-4-ylmethyl)-benzenesulfonamide]",100 to 500
8,"O=C1NCc2ccc(-c3ccc(S(=O)(=O)NCc4ccncc4)cc3)cc21 [Example 57, 4-(3-oxoisoindolin-5-yl)-N-(pyridin-4-ylmethyl)-benzenesulfonamide]",5 to 100
9,"O=S(=O)(NCc1ccncc1)c1ccc(-c2ccc3ocnc3c2)cc1 [Example 48, 4-(1,3-benzoxazol-5-yl)-N-[(pyridin-4-yl)methyl]benzene-1-sulfonamide]",< 5
10,"O=S(=O)(NCc1ccncc1)c1ccc(-c2ccc3ncsc3c2)cc1 [Example 46, 4-(benzo[d]thiazol-6-yl)-N-(pyridin-4-ylmethyl)-benzenesulfonamide]",< 5
11,"CC(=O)Nc1cc(CNS(=O)(=O)c2ccc(C3CCCCC3)cc2)ccn1 [Example 10, N-(4-(((4-cyclohexylphenyl)sulfonamido)methyl)pyridin-2-yl)acetamide]",5 to 100
12,"Cc1nc2cc(-c3ccc(S(=O)(=O)NCc4ccncc4)cc3)ccc2o1 [Example 47, 4-(2-methyl-benzo[d]oxazol-5-yl)-N-(pyridin-4-ylmethyl)-benzenesulfonamide]",< 5
13,"O=S(=O)(Nc1cccc2cnccc12)c1ccc(C2CCOCC2)cc1 [Example 7, N-(Isoquinolin-5-yl)-4-(tetrahydro-2H-pyran-4-yl)enzenesulfonamide]",< 5
14,"O=S(=O)(NCc1ccncc1)c1ccc(-c2ccc3c(c2)OCO3)cc1 [Example 53, 4-(benzo[d][1,3]dioxol-5-yl)-N-(pyridin-4-ylmethyl)-benzenesulfonamide]",< 5
15,"Nc1cc(CNS(=O)(=O)c2ccc(C3CCCCC3)cc2)ccn1 [Example 9, N-((2-aminopyridin-4-yl)methyl)-4-cyclohexylbenzenesulfonamide]",< 5
16,"Cn1ncc2c(NS(=O)(=O)c3ccc(C4CCCCC4)cc3)cccc21 [Example 63, 4-cyclohexyl-N-(1-methyl-1H-indazol-4-yl)benzenesulfonamide]",< 5

row,Structure (SMILES),IC50 [nM]
1,"O=S(=O)(NCc1ccncc1)c1ccc(-c2ccncc2)cc1 [Example 38, 4-(pyridin-4-yl)-N-(pyridin-4-ylmethyl)benzenesulfonamide]",5 to 100
2,"CC(=O)N1CCC(c2ccc(S(=O)(=O)NCc3ccncc3)cc2)C1 (stereo not shown) [Example 21, 4-(1-acetylpyrrolidin-3-yl)-N-(pyridin-4-ylmethyl)-benzenesulfonamide]",> 500
3,"O=S(=O)(NCc1ccncc1)c1ccc(-c2ccc3ncoc3c2)cc1 [Example 45, 4-(benzo[d]oxazol-6-yl)-N-(pyridin-4-ylmethyl)-benzenesulfonamide]",< 5
4,"O=S(=O)(Nc1cccc2cnccc12)c1ccc(C2CCCCC2)cc1 [Example 6, 4-Cyclohexyl-N-(isoquinolin-5-yl)benzenesulfonamide]",< 5
5,"CC1CCN(c2ccc(S(=O)(=O)NCc3ccncc3)cc2)C1 (stereo not shown) [Example 28, 4-(3-methylpyrrolidin-1-yl)-N-(pyridin-4-ylmethyl)-benzenesulfonamide]",5 to 100
6,"O=S(=O)(NCc1ccncc1)c1ccc(C2CCOCC2)cc1 [Example 16, N-(pyridin-4-ylmethyl)-4-(tetrahydro-2H-pyran-4-yl)-benzenesulfonamide]",< 5
7,"O=S(=O)(NCc1ccncc1)c1ccc(C2CCCC2)cc1 [Example 2, 4-cyclopentyl-N-(pyridin-4-ylmethyl)benzenesulfonamide]",< 5
8,"CC1(C)CN(c2ccc(S(=O)(=O)NCc3ccncc3)cc2)C1 [Example 32, 4-(3,3-dimethylazetidin-1-yl)-N-[(pyridin-4-yl)methyl]benzene-1-sulfonamide]",5 to 100
9,"Cc1cnccc1-c1ccc(S(=O)(=O)NCc2ccncc2)cc1 [Example 39, 4-(3-methylpyridin-4-yl)-N-(pyridin-4-ylmethyl)-benzenesulfonamide]",< 5
10,"O=S(=O)(NCc1ccncc1)c1ccc(-c2ccc3cccnc3c2)cc1 [Example 52, N-(pyridin-4-ylmethyl)-4-(quinolin-7-yl)benzenesulfonamide]",< 5
11,"Cc1cc(-c2ccc(S(=O)(=O)NCc3ccncc3)cc2)ccn1 [Example 40, 4-(2-methylpyridin-4-yl)-N-(pyridin-4-ylmethyl)-benzenesulfonamide]",< 5
12,"O=c1[nH]c2cc(-c3ccc(S(=O)(=O)NCc4ccncc4)cc3)ccc2o1 [Example 61, 4-(2-oxo-2,3-dihydro-benzo[d]oxazol-5-yl)-N-(pyridin-4-ylmethyl)-benzenesulfonamide]",5 to 100
13,"O=S(=O)(NCc1ccncc1)c1ccc(C2=CCCC2)cc1 [Example 1, 4-(Cyclopent-1-en-1-yl)-N-(pyridin-4-ylmethyl)benzenesulfonamide]",5 to 100
14,"O=S(=O)(NCc1ccncc1)c1ccc(N2CCCC2)cc1 [Example 25, N-(pyridin-4-ylmethyl)-4-(pyrrolidin-1-yl)benzenesulfonamide]",5 to 100
15,"O=S(=O)(NCc1ccncc1)c1ccc(N2CCCC(F)C2)cc1 (stereo not shown) [Example 30, 4-(3-fluoropiperidin-1-yl)-N-(pyridin-4-ylmethyl)-benzenesulfonamide]",5 to 100
16,"O=C1NCCc2ccc(-c3ccc(S(=O)(=O)NCc4ccncc4)cc3)cc21 [Example 56, 4-(1-oxo-1,2,3,4-tetrahydroisoquinolin-7-yl)-N-(pyridin-4-ylmethyl)-benzenesulfonamide]",5 to 100

# Same assay, conditions: THP-1 cells treated with PMA and compound (5-point 10-fold dilution), 72 hr; human CD14 ELISA on media
row,Structure (SMILES),IC50 [nM]
1,"Cc1nc2cc(-c3ccc(S(=O)(=O)NCc4ccncc4)cc3)ccc2s1 [49 (b), 4-(2-methyl-benzo[d]thiazol-5-yl)-N-(pyridin-4-ylmethyl)-benzenesulfonamide]",100 to 500
2,"Cc1nc2cc(-c3ccc(S(=O)(=O)NCc4ccncc4)cc3)ccc2s1 [49 (a), 4-(2-methyl-benzo[d]thiazol-5-yl)-N-(pyridin-4-ylmethyl)-benzenesulfonamide]",< 5

# From US20240043384A1, “INHIBITORS OF PU.1 FOR THE TREATMENT OF DISEASE” (Board of Regents, The University of Texas System, priority 2021, published 2024)
